Results published in ChEMBL document CHEMBL4627246, “Pyroglutamide-Based P2X7 Receptor Antagonists Targeting Inflammatory Bowel Disease” (J Med Chem, 2020).

Key:
Format in all cases: cell-based
CCRF-CEM = assay: Cytotoxicity against human CCRF-CEM cells assessed as effect on cell growth at 10 uM incubated for 48 hrs by sulforhodamine B assay
SF-539 = assay: Cytotoxicity against human SF539 cells assessed as effect on cell growth at 10 uM incubated for 48 hrs by sulforhodamine B assay; conditions: sf-539, 48 h
T47D = assay: Cytotoxicity against human T47D cells assessed as effect on cell growth at 10 uM incubated for 48 hrs by sulforhodamine B assay
BT-549 = assay: Cytotoxicity against human BT549 cells assessed as effect on cell growth at 10 uM incubated for 48 hrs by sulforhodamine B assay; conditions: bt-549, 48 h
MDA-MB-231 = assay: Cytotoxicity against human MDA-MB-231 cells assessed as effect on cell growth at 10 uM incubated for 48 hrs by sulforhodamine B assay; conditions: mda-mb-231, 48 h
SNB-19 = assay: Cytotoxicity against human SNB19 cells assessed as effect on cell growth at 10 uM incubated for 48 hrs by sulforhodamine B assay; conditions: snb-19, 48 h
SW-620 = assay: Cytotoxicity against human SW620 cells assessed as effect on cell growth at 10 uM incubated for 48 hrs by sulforhodamine B assay; conditions: sw-620, 48 h
HCT-15 = assay: Cytotoxicity against human HCT15 cells assessed as effect on cell growth at 10 uM incubated for 48 hrs by sulforhodamine B assay; conditions: hct-15, 48 h
NCI-H460 = assay: Cytotoxicity against human NCI-H460 cells assessed as effect on cell growth at 10 uM incubated for 48 hrs by sulforhodamine B assay; conditions: nci-h460, 48 h
HOP-92 = assay: Cytotoxicity against human HOP92 cells assessed as effect on cell growth at 10 uM incubated for 48 hrs by sulforhodamine B assay; conditions: hop-92, 48 h
MCF7 = assay: Cytotoxicity against human MCF7 cells assessed as effect on cell growth at 10 uM incubated for 48 hrs by sulforhodamine B assay; conditions: mcf7, 48 h
ACHN = assay: Cytotoxicity against human ACHN cells assessed as effect on cell growth at 10 uM incubated for 48 hrs by sulforhodamine B assay
OVCAR-5 = assay: Cytotoxicity against human OVCAR5 cells assessed as effect on cell growth at 10 uM incubated for 48 hrs by sulforhodamine B assay; conditions: ovcar-5, 48 h
HL-60(TB) = assay: Cytotoxicity against human HL-60(TB) cells assessed as effect on cell growth at 10 uM incubated for 48 hrs by sulforhodamine B assay
RXF 393 = assay: Cytotoxicity against human RXF393 cells assessed as effect on cell growth at 10 uM incubated for 48 hrs by sulforhodamine B assay; conditions: rxf 393, 48 h
PC-3 = assay: Cytotoxicity against human PC3 cells assessed as effect on cell growth at 10 uM incubated for 48 hrs by sulforhodamine B assay; conditions: pc-3, 48 h
UACC-62 = assay: Cytotoxicity against human UACC62 cells assessed as effect on cell growth at 10 uM incubated for 48 hrs by sulforhodamine B assay; conditions: uacc-62, 48 h
Hs-578T = assay: Cytotoxicity against human Hs 578T cells assessed as effect on cell growth at 10 uM incubated for 48 hrs by sulforhodamine B assay
HOP-62 = assay: Cytotoxicity against human HOP62 cells assessed as effect on cell growth at 10 uM incubated for 48 hrs by sulforhodamine B assay; conditions: hop-62, 48 h
UO-31 = assay: Cytotoxicity against human UO31 cells assessed as effect on cell growth at 10 uM incubated for 48 hrs by sulforhodamine B assay; conditions: uo-31, 48 h

Measured: Activity

O=C1N[C@H](C(=O)NCc2ccc(Cl)cc2Cl)CO1
Non-Toxic: all assays above

O=C(NCc1ccc(Cl)cc1Cl)[C@@H]1CCC(=O)N1c1cscn1
Non-Toxic: all assays above

O=C(NCc1ccc(Cl)cc1Cl)[C@@H]1CCC(=O)N1c1cncs1
Non-Toxic: all assays above

CN(C)C(=O)[C@@H]1CCC(=O)N1
Non-Toxic: all assays above

O=C(NCc1ccc(Cl)cc1Cl)[C@@H]1CCC(=O)N1Cc1ccc(Cl)cc1
Non-Toxic: all assays above

O=C(NCc1ccc(Cl)cc1Cl)[C@@H]1CCC(=O)N1c1ccc(Cl)cc1
Non-Toxic: all assays above
